Where two headings read alike, the source gives them in different places.
Experiments:
Format in all cases: cell-based
[1] = target: T1, hTRPV1 (Homo sapiens, UniProt Q8NER1); assay: Fura-2 AM ratiometric Ca2+ imaging of HEK293T cells transiently expressing hTRPV1 (responding cells %); details: for inhibition of Ca2+ responses induced by the A.rugosa extract in hTRPV1 cells: antagonist: RR 30 μM, CPZ 5 μM, HEK293T cells transiently expressing hTRPV1; for activation of hTRPV1 (cytosolic Ca2+ influx, responding cells): extract 300 μg/mL, capsaicin 0.1 μM, ten compounds at 0.1-1 mM
T1 construct: host or cells: HEK293T cells, transient transfection with pEAK10-hTRPV1
Experimental: HEK293T cells cultured at 37°C in DMEM supplemented with 10% FBS and 1% penicillin/streptomycin (Invitrogen) were seeded onto 100 mm dishes and transfected with the hTRPV1 expression plasmid using Lipofectamine 2000. After 6 h, the transfected cells were seeded onto 96-well black-wall plates for 24 h prior to their use in experiments.
(§1) Non-hTRPA1-expressing Flp-In 293 cells, HEK293T cells, hTRPA1-Flp-In 293 stable cells, and HEK293T cells transiently expressing hTRPV1 were seeded onto 96-well black-wall imaging plates (BD Falcon Labware, Franklin Lakes, NJ, USA) for 24 h prior to their use in experiments. After 24 h, the cells were washed with assay buffer (130 mM NaCl, 10 mM glucose, 5 mM KCl, 2 mM CaCl2, 1.2 mM MgCl2, and 10 mM HEPES [pH 7.4]) and loaded with the Ca^2+ indicator dye Fura-2AM (5 μM; Invitrogen) in assay buffer for 30 min at 27°C. The cells were rinsed with assay buffer, incubated in 100 μl of assay buffer for >10 min, and then treated with ligand by adding 100 μl of the ligand solution. […] The fluorescence intensity of Fura-2 AM excited at 340 and 380 nm was measured at 510 nm using a computer-controlled filter changer (Lambda DG4; Sutter Instrument Co., San Rafael, CA, USA), an Andor Luca CCD camera (Andor Technology, Belfast, Northern Ireland), and an inverted fluorescence microscope (IX-71; Olympus, Tokyo, Japan). Images were recorded at 3 s intervals and were analyzed using MetaFluor software (Molecular Devices, Sunnyvale, CA, USA).

[2] = target: T2, hTRPA1 (Homo sapiens, UniProt O75762); assay: Cytosolic Ca2+ measurement with Fluo-4 AM on a fluorescence plate reader (FlexStation III), ΔRFU dose-response; details: for Hill slope of Ca2+ concentration-response curve: n = 7; for agonist type at hTRPA1 (full / partial): judged from maximum ΔRFU versus AITC
T2 construct: expressed in transfected cells
Experimental: Flp-In 293 cells stably expressing hTRPA1 [22] were a gift from Dr. Takumi Misaka (University of Tokyo, Tokyo, Japan). The hTRPA1-expressing cells were maintained in Dulbecco’s modified Eagle’s medium (DMEM; Invitrogen, Carlsbad, CA, USA) containing 10% fetal bovine serum (FBS; Invitrogen) and 0.2% hygromycin B (Invitrogen). […] All cells were incubated at 37°C in a humidified atmosphere containing 5% CO2. Cultured hTRPA1-expressing cells and Flp-In 293 cells were seeded onto 96-well black-wall plates for 24 h prior to their use in experiments.
hTRPA1-Flp-In 293 stable cells were seeded onto 96-well black-wall CellBIND Surface plates (Corning Inc., Corning, NY, USA) 24h before the assay. The cells were loaded with 5 μM Fluo-4AM (Molecular Probes, Eugene, OR, USA) in assay buffer for 30 min at 27°C, washed with assay buffer, and incubated for 15 min at 27°C. Subsequently, the cytosolic Ca^2+ concentration was measured using a Flex StationIII microplate reader (Molecular Devices). Sample solutions were loaded after a 17s baseline scan and ligand-induced changes in fluorescence intensity (excitation, 486 nm; emission, 516 nm; cutoff, 515 nm) were monitored at 2.1s intervals for 120s. The response of each well is represented as the change in relative fluorescence units (ΔRFU), which was defined as the maximum fluorescence value minus the minimum fluorescence value. All experiments were performed at least three times. Plots of amplitude versus ligand concentration were fitted using Hill’s equations.
Dose-response analyses were carried out with GraphPad Prism (GraphPad Software Inc., San Diego, CA, USA). The data represent the mean ± SEM.

[3] = target: T2, hTRPA1; assay: Fura-2 AM ratiometric Ca2+ imaging of hTRPA1-Flp-In 293 stable cells; details: for activation of hTRPA1 (cytosolic Ca2+ influx): extract 300 μg/mL, AITC 30 μM, 4-allylanisole 1 mM; for activation of hTRPA1 (cytosolic Ca2+ influx) / block of Ca2+ influxes induced by the five active compounds in hTRPA1 cells: p-anisaldehyde 1 mM, L-carveol 300 μM, trans-p-methoxycinnamaldehyde 100 μM, methyl eugenol 300 μM; for block of Ca2+ influxes induced by the five active compounds in hTRPA1 cells / inhibition of Ca2+ responses induced by AITC and the A.rugosa extract in hTRPA1 cells: antagonist: RR 30 μM, HC-030031 100 μM; for block of Ca2+ influxes induced by the five active compounds in hTRPA1 cells: agonists 4-allylanisole 1 mM; for inhibition of Ca2+ responses induced by AITC and the A.rugosa extract in hTRPA1 cells: hTRPA1-Flp-In 293 stable cells
Experimental: Flp-In 293 cells stably expressing hTRPA1 [22] were a gift from Dr. Takumi Misaka (University of Tokyo, Tokyo, Japan). The hTRPA1-expressing cells were maintained in Dulbecco’s modified Eagle’s medium (DMEM; Invitrogen, Carlsbad, CA, USA) containing 10% fetal bovine serum (FBS; Invitrogen) and 0.2% hygromycin B (Invitrogen). Flp-In 293 cells (Invitrogen: R750-07) were maintained in DMEM containing 10% FBS. All cells were incubated at 37°C in a humidified atmosphere containing 5% CO2. Cultured hTRPA1-expressing cells and Flp-In 293 cells were seeded onto 96-well black-wall plates for 24 h prior to their use in experiments.
as §1

[4] = target: T2, hTRPA1; assay: Whole-cell patch clamp recording of hTRPA1 currents; details: for induction of hTRPA1 inward currents: holding -70 mV, 30 s application, hTRPA1-Flp-In 293 stable cells and HEK293T cells transiently expressing hTRPA1, AITC 30 μM, 4-allylanisole 3 mM, p-anisaldehyde 6 mM, L-carveol 1.8 mM, methyl eugenol 900 μM, trans-p-methoxycinnamaldehyde 1 mM
Experimental: For the transient expression of hTRPA1, HEK293T cells (ATCC: CRL-11268) cultured at 37°C in DMEM supplemented with 10% FBS and 1% penicillin/streptomycin (Invitrogen) were transfected using Lipofectamine 2000 (Invitrogen) and 0.1μg of cDNA encoding tetrameric red fluorescence protein (DsRed) was co-transfected as a marker for successfully transfected cells. The hTRPA1expressing plasmid was generously given to us from Kyeongjin Kang (Sungkyunkwan University School of Medicine, Suwon, Korea). The next day, cells were plated onto poly-L-lysine (0.1 mg/ml, Sigma-Aldrich) coated chips, and the fluorescent cells were studied within 2 days after transfection.
Cells were voltage clamped in the whole-cell recording configuration at room temperature (22–25°C). The resistance of electrodes pulled from glass micropipette capillaries (Sutter Instrument Co., Novato, CA, USA) was 2–2.5 MΩ with >60% compensation of series resistance errors. Fast and slow capacitances were compensated before application of the test pulse. Membrane currents were recorded using a HEKA EPC-10 amplifier with pulse software (HEKA Elektronik, Lambrecht, Germany). The pipette solution used for recording hTRPA1 currents contained 140 mM KCl, 5 mM MgCl2, 10 mM HEPES, 0.1 mM 1,2-bis(2-aminophenoxy)ethane-N,N,N',N'-tetraacetic acid (BAPTA), 3 mM Na2ATP, and 0.1 mM Na3GTP (adjusted to pH 7.4 with KOH). The external Ringer’s solution used for recording hTRPA1 currents contained 160 mM NaCl, 5 mM KCl, 1 mM MgCl2, 2 mM EGTA, 10 mM glucose, and 10 mM HEPES (adjusted to pH 7.4with NaOH). hTRPA1 currents were recorded by holding the cell at -70 mV. The following reagents were obtained: BAPTA, Na2ATP, Na3GTP, and EGTA (Sigma-Alrich), HEPES (Calbiochem, San Diego, CA, USA), and other chemicals (Merck, Township, NJ, USA).

[5] = hTRPA1-Flp-In 293 stable cells, Fluo-4 AM
[6] = hTRPA1-Flp-In 293 stable cells, Fluo-4 AM, ΔRFU, Hill fit, seven independent experiments, mean ± SEM, read-out: EC50 of Ca2+ response

T1 sequence (Q8NER1 whole entry): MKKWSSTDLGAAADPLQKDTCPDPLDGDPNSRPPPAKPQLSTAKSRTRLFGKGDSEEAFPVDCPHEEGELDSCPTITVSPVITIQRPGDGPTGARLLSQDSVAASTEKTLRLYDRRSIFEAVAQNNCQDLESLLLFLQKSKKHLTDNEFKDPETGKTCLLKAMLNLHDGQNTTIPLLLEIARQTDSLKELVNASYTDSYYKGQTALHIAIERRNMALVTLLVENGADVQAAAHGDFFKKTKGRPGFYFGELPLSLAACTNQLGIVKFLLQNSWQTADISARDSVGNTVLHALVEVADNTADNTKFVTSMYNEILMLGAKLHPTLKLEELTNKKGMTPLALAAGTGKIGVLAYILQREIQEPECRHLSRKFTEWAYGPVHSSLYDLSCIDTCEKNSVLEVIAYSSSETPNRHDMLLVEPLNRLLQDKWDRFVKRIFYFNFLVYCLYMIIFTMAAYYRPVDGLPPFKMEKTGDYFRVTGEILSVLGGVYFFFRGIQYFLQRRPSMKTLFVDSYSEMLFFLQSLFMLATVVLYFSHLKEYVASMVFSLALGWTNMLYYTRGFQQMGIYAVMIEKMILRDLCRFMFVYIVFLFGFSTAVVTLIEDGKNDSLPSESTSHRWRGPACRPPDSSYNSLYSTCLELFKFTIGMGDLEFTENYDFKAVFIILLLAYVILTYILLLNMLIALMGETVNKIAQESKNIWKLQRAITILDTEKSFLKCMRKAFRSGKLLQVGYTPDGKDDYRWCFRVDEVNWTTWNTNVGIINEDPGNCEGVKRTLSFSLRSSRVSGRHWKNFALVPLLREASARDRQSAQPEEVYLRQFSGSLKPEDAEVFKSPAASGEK
T2 sequence (O75762 whole entry): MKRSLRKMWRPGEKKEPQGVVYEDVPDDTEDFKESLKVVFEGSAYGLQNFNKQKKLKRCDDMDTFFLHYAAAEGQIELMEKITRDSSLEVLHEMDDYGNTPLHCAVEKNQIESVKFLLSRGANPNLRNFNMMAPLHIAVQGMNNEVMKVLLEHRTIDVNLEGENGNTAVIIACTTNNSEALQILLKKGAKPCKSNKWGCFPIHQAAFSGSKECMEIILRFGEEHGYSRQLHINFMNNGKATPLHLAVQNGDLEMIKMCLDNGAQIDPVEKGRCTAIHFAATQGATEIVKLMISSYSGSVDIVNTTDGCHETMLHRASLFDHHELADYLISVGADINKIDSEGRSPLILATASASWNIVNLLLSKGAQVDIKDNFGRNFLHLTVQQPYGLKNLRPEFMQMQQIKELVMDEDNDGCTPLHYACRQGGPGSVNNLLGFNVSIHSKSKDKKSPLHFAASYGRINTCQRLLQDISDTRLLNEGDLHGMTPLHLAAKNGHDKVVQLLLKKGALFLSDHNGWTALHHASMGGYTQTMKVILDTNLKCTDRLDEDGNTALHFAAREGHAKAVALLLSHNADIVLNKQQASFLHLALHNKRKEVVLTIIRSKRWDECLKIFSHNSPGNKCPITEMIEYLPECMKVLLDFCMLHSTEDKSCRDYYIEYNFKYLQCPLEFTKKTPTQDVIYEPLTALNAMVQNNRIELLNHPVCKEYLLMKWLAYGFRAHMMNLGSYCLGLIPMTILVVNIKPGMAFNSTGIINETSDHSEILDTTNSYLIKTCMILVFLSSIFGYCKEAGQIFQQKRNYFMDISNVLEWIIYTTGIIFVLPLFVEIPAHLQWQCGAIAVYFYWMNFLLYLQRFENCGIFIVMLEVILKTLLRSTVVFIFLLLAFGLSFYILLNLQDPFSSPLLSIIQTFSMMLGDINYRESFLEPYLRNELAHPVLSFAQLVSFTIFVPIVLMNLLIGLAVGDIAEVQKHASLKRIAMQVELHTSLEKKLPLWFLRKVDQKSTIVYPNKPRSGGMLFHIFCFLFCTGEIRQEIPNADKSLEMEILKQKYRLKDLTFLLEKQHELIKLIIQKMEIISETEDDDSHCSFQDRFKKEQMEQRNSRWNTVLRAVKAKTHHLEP

SMILES | inhibition of Ca2+ responses induced by the A.rugosa extract in hTRPV1 cells [1] | activation of hTRPV1 (cytosolic Ca2+ influx, responding cells) [1] | EC50 [2] [µM] | Hill slope of Ca2+ concentration-response curve [2, 5] | agonist type at hTRPA1 (full / partial) [2] | activation of hTRPA1 (cytosolic Ca2+ influx) [3] | induction of hTRPA1 inward currents [4] | efficacy (maximum ΔRFU) relative to that of AITC [2, 5] [%] | EC50 [2, 6] [µM] | block of Ca2+ influxes induced by the five active compounds in hTRPA1 cells [3] | inhibition of Ca2+ responses induced by AITC and the A.rugosa extract in hTRPA1 cells [3] | block of hTRPA1 currents evoked by AITC and five compounds ([4]; 30 μM RR, pre-incubation 30 s before second application of compounds)
Oc1cc2c(cc1O)CN(C(=S)NCCc1ccc(Cl)cc1)CCC2 [CPZ, capsazepine, reference compound] | inhibited |  |  |  |  |  |  |  |  |  |  | 
COc1cc(CNC(=O)CCCC/C=C/C(C)C)ccc1O [capsaicin, reference compound] |  | significantly stimulated |  |  |  |  |  |  |  |  |  | 
C=C(C)[C@@H]1CC=C(C)C(O)C1 (stereo partly drawn) [L-carveol] |  | did not activate hTRPV1 | 189 ± 26.8 | 2.9±0.5 | almost full agonists | activated hTRPA1 | induced inward currents |  |  |  |  | 
COc1ccc(C=O)cc1 [p-anisaldehyde] |  | did not activate hTRPV1 |  | 2.0±0.5 | partial agonists | activated hTRPA1 | induced inward currents | 64.2 | 546 ± 73 |  |  | 
C=CCc1ccc(OC)c(OC)c1 [methyl eugenol] |  | did not activate hTRPV1 |  | 1.4±0.3 | almost full agonists | activated hTRPA1 | induced inward currents |  | 160 ± 21.9 |  |  | 
N.N.N.N.N.N.N.N.N.N.N.N.N.N.[Cl-].[Cl-].[Cl-].[Cl-].[Cl-].[Cl-].[O-2].[O-2].[Ru+3].[Ru+3].[Ru+4] [RR, ruthenium red, reference compound] | inhibited |  |  |  |  |  |  |  |  | mostly blocked | inhibited | completely blocked
CC(C)c1ccc(NC(=O)Cn2cnc3c2c(=O)n(C)c(=O)n3C)cc1 [HC-030031, reference compound] |  |  |  |  |  |  |  |  |  | mostly blocked | inhibited | 
COc1ccc(/C=C/C=O)cc1 [trans-p-methoxycinnamaldehyde] |  | did not activate hTRPV1 |  | 2.2±0.7 | almost full agonists | activated hTRPA1 | induced inward currents |  | 29.8 ± 14.9 |  |  | 
C=CCc1ccc(OC)cc1 [4-allylanisole] |  | did not activate hTRPV1 |  | 1.7±0.3 | partial agonists | activated hTRPA1 | induced inward currents | 59.9 | 1540 ± 316 |  |  | 
C=CCN=C=S [AITC, allyl isothiocyanate, reference compound] |  |  |  | 1.6±0.5 |  | successfully activated | induced inward currents |  |  |  |  | 

Reference: publication PMC4433173, “Five hTRPA1 Agonists Found in Indigenous Korean Mint, Agastache rugosa” (PLoS ONE, 2015)
